Assay results: US12364682B2, “Use of tegaserod in preparation of anti-tumor drug” (Qingdao Haiji Biomedicine Co., Ltd., priority 2019, dated 2025)
Where a name gives a salt, the structure may show the parent alone.

What was measured:
[1] = test system: STAT3; assay: STAT3-dependent luciferase reporter gene test; assay type: cell-based; conditions: Homo sapiens; SKA cells (A549 with STAT3-luciferase reporter gene), 24 h; read-out: IC50 of inhibitory effect on STAT3 (luciferase reporter)
Description: HeLa and SKA cells (A549 cells constructed with the STAT3-luciferase reporter gene) were cultivated in a DMEM medium, and DU145, A549, DLD1, H460, and MC38 were cultivated in an RPMI 1640 medium. For routine cultivation, 10% fetal bovine serum (FBS), 100 IU/ml penicillin, and […] streptomycin were added to a medium. All cells were cultivated at 37° C. and 5% CO2.
SKA cells were inoculated into a white 96-well plate at a density of 1×10^4/well, and cultivated overnight at 37° C. and 5% CO2. A drug to be tested was added at a concentration to be tested to act on the cells for 24 h. The luciferase activity was determined on a SpectraMax®L microplate reader using a luciferase kit (purchased from Promega®).

[2] = target: T1, TYK2 Tyr1054/1055 (Homo sapiens, UniProt P29597); assay: Western blotting of TYK2 phosphorylation in DU145 cells; assay type: cell-based; conditions: high concentration 15 μM, 2 h
T1 construct: endogenous in cells; host or cells: DU145
T1 sequence (P29597 whole entry): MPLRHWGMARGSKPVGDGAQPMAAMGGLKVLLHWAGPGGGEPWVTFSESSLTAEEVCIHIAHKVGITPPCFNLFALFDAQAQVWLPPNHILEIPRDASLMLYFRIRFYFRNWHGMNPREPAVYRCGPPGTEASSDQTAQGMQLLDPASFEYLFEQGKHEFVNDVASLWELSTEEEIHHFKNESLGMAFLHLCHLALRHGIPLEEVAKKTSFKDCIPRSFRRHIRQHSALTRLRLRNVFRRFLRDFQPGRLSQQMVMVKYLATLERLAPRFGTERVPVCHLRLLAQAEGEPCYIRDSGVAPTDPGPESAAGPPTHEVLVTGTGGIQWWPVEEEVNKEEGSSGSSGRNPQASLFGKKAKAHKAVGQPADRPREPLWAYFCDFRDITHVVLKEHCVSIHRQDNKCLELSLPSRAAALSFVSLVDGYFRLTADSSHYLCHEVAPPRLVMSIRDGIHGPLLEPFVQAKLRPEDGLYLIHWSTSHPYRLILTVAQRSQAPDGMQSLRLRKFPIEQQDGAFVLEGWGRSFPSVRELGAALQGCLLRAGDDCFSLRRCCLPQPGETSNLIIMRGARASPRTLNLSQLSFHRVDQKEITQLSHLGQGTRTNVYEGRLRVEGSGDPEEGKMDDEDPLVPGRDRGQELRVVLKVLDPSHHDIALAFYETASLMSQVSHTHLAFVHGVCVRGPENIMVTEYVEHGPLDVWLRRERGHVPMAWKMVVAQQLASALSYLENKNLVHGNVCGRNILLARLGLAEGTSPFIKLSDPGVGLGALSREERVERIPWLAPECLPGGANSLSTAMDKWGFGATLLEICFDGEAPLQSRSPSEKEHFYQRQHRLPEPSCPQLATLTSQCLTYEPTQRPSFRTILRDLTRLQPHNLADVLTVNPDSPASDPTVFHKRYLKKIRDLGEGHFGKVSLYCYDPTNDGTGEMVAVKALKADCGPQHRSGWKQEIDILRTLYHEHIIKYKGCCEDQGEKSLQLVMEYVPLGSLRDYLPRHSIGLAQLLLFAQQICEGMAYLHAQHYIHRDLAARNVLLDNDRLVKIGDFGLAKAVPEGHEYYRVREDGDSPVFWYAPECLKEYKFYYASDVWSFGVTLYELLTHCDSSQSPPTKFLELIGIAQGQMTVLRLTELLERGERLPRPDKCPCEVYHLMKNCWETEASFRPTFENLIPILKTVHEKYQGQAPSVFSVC
Description: (§1) The cells were harvested and lysed with an RIPA buffer, a resulting lysate was subjected to sodium dodecyl sulfate-polyacrylamide gel electrophoresis (SDS-PAGE), and a resulting protein was transferred to a nitrocellulose (NC) membrane (purchased from GE Healthcare®). A primary antibody was added to bind the protein to be tested on the membrane, then a horseradish peroxidase (HRP)-conjugated secondary antibody (purchased from Absin) was added for incubation, and finally a formed immunocomplex was detected with an Immobilon™ Western chemiluminescent HRP substrate (Millipore®) and photographed with a Tanon® 5200 imaging system.
(§2) STAT3 is usually JAK-kinase-phosphorylated and activated by the autophosphorylated JAK kinase upstream thereof.

[3] = test system: DLD1 colon cancer cells; assay: Cell viability assay, DLD1; assay type: cell-based; conditions: Homo sapiens, DLD-1, 72 h, read-out: growth inhibition IC50
Description: (§3) Cells were inoculated into a 96-well plate at a density of 3,000 cells/well. After the cells were cultivated for 18 h, different concentrations of a drug to be tested were added to act on the cells. 72 h after the drug to be tested was added, 10 μl of resazurin (1 mg/ml) was added to each well, the plate was further incubated for 3 h, and then a fluorescence value at 595 nm (excitation wavelength at 544 nm) was determined on a SpectraMax®i3 multifunctional microplate reader (purchased from Molecular Device®)
(§4) After cells were treated with Tegaserod for 72 h, the cell viability was determined to reflect the inhibitory effect of the drug on cell growth.

[4] = test system: STAT3 Tyr705; assay: Western blotting of constitutive STAT3 activation in A549 cells; assay type: cell-based; conditions: constitutively activated STAT3, 2 h
Description: as §1
(§5) Different concentrations of Tegaserod were added to normally-cultured cells to act on the cells for 2 h, a cell protein lysate was collected for western blotting assay, and an activation status of STAT3 was observed through a phosphorylation status at an STAT3 Tyr705 site.

[5] = test system: immune cells in MC38 transplanted tumors; assay: FCM analysis of immune cells in MC38 tumors; assay type: in vivo, mice
Description: (§6) At the end of the experiment, the mice were sacrificed by C02, a proper amount of tumor tissue was collected and placed in a dissociation tube with a mouse tumor dissociation reagent (MC38 transplanted tumor) or human tumor dissociation reagent (DU145 transplanted tumor), and a tissue dissociator (Miltenyi) was used for dissociation. Separated single cells were subjected to RBC lysis and dead cell staining, obtained cells were incubated with a blocking solution at 4° C., a corresponding antibody was added, and analysis was conducted on a FACSAriaIII cell sorter.
(§7) Some parts in nude mice had acquired immune cell deficiency and an imperfect immune system, and thus the anti-tumor effect and immunomodulatory effect of Tegaserod were further tested in immune-sound mice.

[6] = test system: prostate cancer DU145 cells; assay: Cell viability assay, DU145; assay type: cell-based; conditions: Homo sapiens, DU-145, 72 h, read-out: growth inhibition IC50
Description: as §3, §4

[7] = test system: lung cancer H460 cells; assay: Cell viability assay, H460; assay type: cell-based; conditions: Homo sapiens, NCI-H460, 72 h, read-out: growth inhibition IC50
Description: as §3, §4

[8] = test system: cell proliferation marker Ki67; assay: Immunohistochemistry of Ki67 in DU145 transplanted tumors; assay type: in vivo, nude mice; conditions: oral 1.25 mg/kg once every two days
Description: (§8) Paraffin sections were deparaffinized with xylene, washed with ethanol of various grades, subjected to antigen retrieval, blocked with a blocking solution in a 37° C. incubator, then treated with a primary antibody and a secondary antibody, stained with a DAB staining solution, treated with hematoxylin, a differentiation solution, an ammonia solution, ethanol of various grades, and xylene, and sealed with a neutral resin.

[9] = test system: phosphorylated STAT3; assay: Immunohistochemistry of phosphorylated STAT3 in DU145 transplanted tumors; assay type: in vivo, nude mice; conditions: oral administration
Description: as §8
In addition, the human prostate cancer cell line DU145 with constitutive STAT3 activation was selected, and the effect of Tegaserod on the growth of transplanted tumors of the human prostate cancer cell line in nude mice was also tested.

[10] = test system: CRC MC38 transplanted tumors; assay: CRC MC38 syngeneic tumor model; assay type: in vivo; conditions: immune-sound mice
Description: as §7

[11] = test system: prostate cancer DU145 transplanted tumors; assay: DU145 transplanted tumor nude mouse model; assay type: in vivo, nude mice
Description: (§9) Female NRMI nu/nu athymic nude mice (SPF grade, 6 weeks old, with a weight of 17 g to 20 g) were purchased from GemPharmatech®, and raised in a constant-temperature and constant-humidity environment according to standard requirements, where a 12 h light-dark cycle was adopted. The animal experiment was approved by the Laboratory Animal Committee of Ocean University of China and complied with the “Guide for Care and Use of Laboratory Animals” published by the National Institutes of Health (NIH Publication No. 85-23, revised in 1996).
(§10) Nude mice were subcutaneously injected with an A549 cell suspension (female mice) or a DU145 matrigel cell suspension (male mice). After palpable solid tumors were formed, constructed model mice were randomly divided into groups, each with 7 to 10 mice. Administration treatment was conducted according to the experimental grouping. Throughout the experiment, a body weight was measured regularly. A tumor volume was calculated as follows: tumor volume=0.5×length×width×width.

[12] = test system: immune cells in DU145 transplanted tumors; assay: FCM analysis of immune cells in DU145 transplanted tumors; assay type: in vivo; conditions: DU145 transplanted tumors in nude mice
Description: as §6
Furthermore, the composition and proportion of immune cells in DU145 transplanted tumors in nude mice were tested through FCM.

[13] = target: T2, JAK2 Tyr1007/1008 (Homo sapiens, UniProt O60674); assay: Western blotting of JAK2 phosphorylation in DU145 cells; assay type: cell-based; conditions: 7.5 μM, 2 h
T2 construct: endogenous in cells; host or cells: DU145
T2 sequence (O60674 whole entry): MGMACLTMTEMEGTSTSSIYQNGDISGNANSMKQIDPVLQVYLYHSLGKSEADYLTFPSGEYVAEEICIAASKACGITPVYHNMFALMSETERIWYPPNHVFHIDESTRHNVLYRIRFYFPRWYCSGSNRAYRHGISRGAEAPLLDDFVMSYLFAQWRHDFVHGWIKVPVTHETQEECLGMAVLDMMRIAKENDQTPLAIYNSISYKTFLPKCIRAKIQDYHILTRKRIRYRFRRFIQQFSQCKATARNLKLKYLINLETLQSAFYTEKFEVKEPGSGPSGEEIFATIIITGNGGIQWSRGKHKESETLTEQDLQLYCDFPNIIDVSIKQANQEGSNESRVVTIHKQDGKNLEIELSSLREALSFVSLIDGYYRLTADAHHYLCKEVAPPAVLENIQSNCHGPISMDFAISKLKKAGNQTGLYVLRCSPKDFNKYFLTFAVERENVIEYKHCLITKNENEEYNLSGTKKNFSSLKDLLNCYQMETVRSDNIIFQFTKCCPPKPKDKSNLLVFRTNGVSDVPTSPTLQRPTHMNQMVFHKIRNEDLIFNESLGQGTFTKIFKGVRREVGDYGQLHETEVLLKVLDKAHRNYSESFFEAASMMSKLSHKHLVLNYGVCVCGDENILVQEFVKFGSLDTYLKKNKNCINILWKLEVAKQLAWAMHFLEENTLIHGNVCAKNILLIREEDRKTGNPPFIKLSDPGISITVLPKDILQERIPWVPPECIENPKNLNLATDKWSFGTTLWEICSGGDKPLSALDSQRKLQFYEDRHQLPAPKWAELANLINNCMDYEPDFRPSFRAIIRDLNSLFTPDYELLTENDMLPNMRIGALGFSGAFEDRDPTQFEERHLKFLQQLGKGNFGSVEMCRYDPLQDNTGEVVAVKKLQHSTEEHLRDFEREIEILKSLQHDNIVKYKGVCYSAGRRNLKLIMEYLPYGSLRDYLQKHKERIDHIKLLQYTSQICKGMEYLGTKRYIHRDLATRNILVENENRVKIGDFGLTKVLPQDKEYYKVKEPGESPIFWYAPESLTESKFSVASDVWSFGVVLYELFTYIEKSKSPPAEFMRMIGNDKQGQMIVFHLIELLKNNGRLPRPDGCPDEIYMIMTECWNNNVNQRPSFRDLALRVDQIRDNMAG
Description: as §1, §2

[14] = test system: STAT3 Tyr705; assay: Western blotting of constitutive STAT3 activation in DU145 cells; assay type: cell-based, human; conditions: constitutively activated STAT3, 2 h
Description: as §1, §5

[15] = test system: STAT3 (Y705); assay: Western blotting of IL-6-induced STAT3 activation in HeLa cells; assay type: cell-based; conditions: 2 h drug, then 5 ng/ml IL-6 for 10 min
Description: as §1
IL-6 was the main cytokine to activate STAT3 signaling. Hela cells were first treated with different concentrations of Tegaserod for 2 h, then stimulated with 5 ng/ml IL-6 for 10 min before harvested. Total protein was extracted, and the phosphorylation of STAT3 (Y705) was detected through western blotting.

[16] = test system: lung cancer A549 cells; assay: Cell viability assay, A549; assay type: cell-based; conditions: Homo sapiens, 72 h, read-out: growth inhibition IC50
Description: as §3, §4

[17] = target: T3, JAK1 Tyr1022/1023 (Homo sapiens, UniProt P23458); assay: Western blotting of JAK1 phosphorylation in DU145 cells; assay type: cell-based
T3 construct: endogenous in cells; host or cells: DU145
T3 sequence (P23458 whole entry): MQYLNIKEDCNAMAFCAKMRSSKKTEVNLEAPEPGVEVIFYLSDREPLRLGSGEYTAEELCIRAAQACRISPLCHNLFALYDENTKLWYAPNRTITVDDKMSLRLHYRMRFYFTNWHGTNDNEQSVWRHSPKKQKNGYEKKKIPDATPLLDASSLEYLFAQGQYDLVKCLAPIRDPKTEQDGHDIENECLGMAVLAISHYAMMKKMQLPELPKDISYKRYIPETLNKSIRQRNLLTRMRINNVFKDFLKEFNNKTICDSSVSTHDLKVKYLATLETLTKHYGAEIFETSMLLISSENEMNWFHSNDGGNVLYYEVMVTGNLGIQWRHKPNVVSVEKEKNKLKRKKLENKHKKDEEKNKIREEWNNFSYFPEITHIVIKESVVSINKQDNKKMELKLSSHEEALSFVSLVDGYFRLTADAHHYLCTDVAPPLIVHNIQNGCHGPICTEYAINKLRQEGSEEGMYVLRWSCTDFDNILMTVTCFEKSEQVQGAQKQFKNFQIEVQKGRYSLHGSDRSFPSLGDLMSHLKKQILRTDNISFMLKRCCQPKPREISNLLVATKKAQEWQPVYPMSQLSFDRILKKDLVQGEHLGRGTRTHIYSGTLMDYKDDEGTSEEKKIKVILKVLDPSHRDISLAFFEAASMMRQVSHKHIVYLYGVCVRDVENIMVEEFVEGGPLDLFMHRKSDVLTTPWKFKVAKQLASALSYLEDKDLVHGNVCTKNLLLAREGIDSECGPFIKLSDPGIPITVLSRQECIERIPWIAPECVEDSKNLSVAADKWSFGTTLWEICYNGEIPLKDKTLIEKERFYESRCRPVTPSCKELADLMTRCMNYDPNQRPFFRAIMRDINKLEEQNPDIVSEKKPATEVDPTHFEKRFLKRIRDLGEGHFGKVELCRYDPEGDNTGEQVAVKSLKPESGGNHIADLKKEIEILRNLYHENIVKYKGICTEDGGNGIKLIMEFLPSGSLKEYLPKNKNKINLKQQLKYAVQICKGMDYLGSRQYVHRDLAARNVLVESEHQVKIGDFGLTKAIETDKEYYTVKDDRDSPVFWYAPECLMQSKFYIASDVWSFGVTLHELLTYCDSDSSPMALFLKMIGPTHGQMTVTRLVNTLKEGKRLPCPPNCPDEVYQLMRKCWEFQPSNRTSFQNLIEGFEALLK
Description: as §1, §2

[18] = test system: mouse stromal cells of DU145 transplanted tumors; assay: Transcriptome sequencing of DU145 transplanted tumors; assay type: in vivo, nude mice; conditions: mouse-derived cells in DU145 transplanted tumors, mRNA sequencing
Description: An appropriate amount of tumor tissue was collected and quick-frozen with liquid nitrogen, and eukaryotic mRNA sequencing was conducted by Majorbio. Based on the Illumina® Novaseq 6000™ sequencing platform, all mRNAs transcribed from specific eukaryotic tissues or cells in a specified period were sequenced. In the sequencing experiment, the Illumina Truseq™ RNA sample prep kit method was used to build a library. Raw data were used for quality control, sequence alignment, transcript assembly, function annotation, and expression analysis.
In order to further explore the immunomodulatory effect of Tegaserod in an anti-tumor process, the transcriptome sequencing technology was used to conduct mRNA sequencing for DU145 transplanted tumors in nude mice, and sequencing results were aligned to the mouse reference genome to obtain the overall mRNA expression of mouse-derived cells in DU145 transplanted tumors in nude mice.

[19] = Body weight and toxicity observation in tumor-bearing mice; assay type: in vivo
Description: as §10

[20] = test system: NSCLC A549 transplanted tumors; assay: A549 transplanted tumor nude mouse model; assay type: in vivo, nude mice
Description: as §9, §10

[21] = test system: immune cells in peripheral blood; assay: Blood cell analysis of peripheral blood; assay type: in vivo; conditions: tumor-bearing mice, after administration
Description: After the tumor-bearing mice were sacrificed by CO2, blood was collected from the heart and placed into an EDTA anticoagulation tube, and the blood cell component test was conducted using an IDEXX ProCyte Dx automatic blood cell analyzer.
In order to verify this hypothesis, the composition change of immune cells in peripheral blood after the administration of Tegaserod was first detected.

## [H]/N=C(/NCCCCC)N/N=C/c1c[nH]c2ccc(OC)cc12 [Tegaserod maleate]
[1]
  IC50: 5.06 µM

## CCCCCNC(=N)N/N=C/c1c[nH]c2ccc(OC)cc12 [Tegaserod, 2-[(5-methoxy-1H-indol-3-yl)methylene]-N-pentylcarbazide]
[2]
  inhibition of phosphorylation at TYK2 Tyr1054/1055: could also inhibit the phosphorylation
[3]
  IC50: 8.7 µM
[4]
  inhibition of STAT3 activation (Tyr705 phosphorylation): could inhibit the activation of STAT3 in a dosage-dependent manner
[5]
  infiltration of immune cells (CD45+) inside tumors: promoted the infiltration of immune cells (CD45+) inside tumors
[6]
  IC50: 2.5 µM
[7]
  IC50: 3.1 µM
[8]
  tumor proliferation ability (Ki67 immunohistochemistry): decreased proliferation ability
[9]
  phosphorylation level of STAT3 in tumors (immunohistochemistry): could effectively inhibit the phosphorylation level of STAT3
[10]
  growth of CRC MC38 transplanted tumors: could effectively inhibit the growth of CRC MC38 transplanted tumors
[11]; DU145 nude mice, oral, once every two days
  tumor inhibition ability at reduced administration frequency: exhibited a stronger tumor inhibition ability
[11]; DU145 transplanted tumor nude mouse model
  dependence of tumor inhibition rate on dosage: no dependence on a Tegaserod dosage
[11]; oral administration, nude mice
  growth of DU145 transplanted tumors: could effectively inhibit the growth of DU145 transplanted tumors in nude mice
[12]
  proportion of immune cells (CD45+; CD11b+Ly6G+, CD11b+Ly6C+, CD335+) in tumors: could increase the proportion of immune cells (CD45+) in tumors
[13]
  inhibition of phosphorylation at JAK2 Tyr1007/1008: could inhibit the phosphorylation
[14]
  inhibition of STAT3 activation (Tyr705 phosphorylation): could inhibit the activation of STAT3 in a dosage-dependent manner
[15]
  inhibition of IL-6-induced STAT3 activation (Y705 phosphorylation): inhibited the activation of STAT3 induced by IL-6 in a dosage-dependent manner
[16]
  IC50: 5.7 µM
[17]; 7.5 μM, 2 h
  inhibition of phosphorylation at JAK1 Tyr1022/1023: could inhibit the phosphorylation
[17]; JAK1 and JAK2 versus TYK2
  selectivity within the JAK kinase family: higher affinity to JAK1 and JAK2 than to TYK2
[18]
  genes of cytokine-cytokine receptor interaction and antigen processing and presentation (KEGG analysis): significantly up-regulated
[19]; A549 nude mouse model, i.p. administration, experimental endpoint
  organ damage after anatomy: no obvious organ damage was observed
[19]; A549 nude mouse model, i.p. administration, throughout the experiment
  body weight: did not change significantly
[19]; A549 nude mouse model, oral administration
  body weight: did not lose weight
[19]; DU145 nude mouse model, low-dosage, low-frequency oral administration
  drug toxicity (body weight): no obvious drug toxicity
[19]; DU145 nude mouse model, oral administration
  drug toxicity: without obvious drug toxicity
[19]; MC38 model, immune-sound mice
  drug toxicity: without obvious drug toxicity
[20]; 5 mg/kg i.p. versus 100 mg/kg gefitinib p.o., A549 nude mice
  anti-tumor effect relative to gefitinib: comparable to that of 100 mg/kg gefitinib (p.o.)
[20]; 5 mg/kg i.p., nude mice, versus control group
  growth of A549 transplanted tumors: could effectively inhibit the growth of A549 tumor cells
[20]; A549 transplanted tumor nude mouse model
  dependence of tumor inhibition rate on dosage: no dependence on a Tegaserod dosage
[20]; oral administration, nude mice
  growth of A549 transplanted tumors (tumor weight and tumor volume): could inhibit the growth of A549 transplanted tumors in nude mice
[21]
  total WBC count, neutrophils, lymphocytes, and platelets in the peripheral blood: could stimulate the increase

## COc1cc2ncnc(Nc3ccc(F)c(Cl)c3)c2cc1OCCCN1CCOCC1 [gefitinib]
[12]
  proportion of immune cells (CD45+; CD11b+Ly6G+, CD11b+Ly6C+, CD335+) in tumors: also exhibited a similar immunomodulatory effect
[21]
  total WBC count, neutrophils, lymphocytes, and platelets in the peripheral blood: stimulate the increase
